The text below walks through data of patent publication US12492194B2, “HPK1 inhibitors” (Janssen Pharmaceutica NV, priority 2019, dated 2025).

One assay addresses T1, full-length human Hpk1 (Homo sapiens, UniProt Q92918).
T1 construct: A recombinant fusion protein consisting of full-length human Hpk1; GST (N)
The experiment in a line: HPK1 kinase assay (ADP Glo Kinase Assay). The format is biochemical. The settings on record: full-length human GST-Hpk1, ADP Glo, 75 μM ATP; for IC50: read-out: Hpk1 biochemical (pIC50) (converted). How it is done: Pharmacological Part HPK1 Kinase Assay
A recombinant fusion protein consisting of full-length human Hpk1 with an N-terminal Glutatione S-transferase (GST) tag was produced in a baculovirus/insect cell expression system. GST-Hpk1 protein was purified from cell lysates by glutathione sepharose affinity chromatography. Kinase inhibition was determined using the ADP Glo™ Kinase Assay kit (Promega, V9101). Test compounds were prepared by serial dilution in dimethyl sulfoxide (DMSO) and 0.1 μl of each dilution was spotted onto a 384-well white Proxiplate (Perkin Elmer, 6008289). 8 μl of kinase assay buffer (40 mM Tris pH 7.5, 2 mM dithiothreitol (DTT), 0.05% Bovine Serum Albumin, 5 mM MgCl2) containing Hpk1 protein was transferred to each well and incubated for 30-45 minutes at room temperature. The enzymatic reaction was started by adding 2 μl of kinase assay buffer containing 75 μM ATP. After 120 minutes, the reaction was stopped by adding 3 μl of ADP Glo™ reagent (Promega, V9101) and incubating 45 minutes at room temperature.
In general terms: In ADP-Glo the light output rises with the ADP produced.

For another assay, the target named is Hpk1 (Homo sapiens, UniProt Q92918). Put plainly: SLP76 phosphorylation assay (SLP76 pS376 in lysates of HEK293 cells engineered to express Hpk1 and SLP76). The assay is classed as cell-based. The settings on record: HEK293 cells expressing Hpk1 and SLP76, 4 hours incubation; for IC50: read-out: pSLP76 (HEK293) (pIC50) (converted). How it is done:
SLP76 Phosphorylation Assay
Hpk1 inhibition in cells was determined by detection of SLP76 phosphorylation at S376 in lysates from HEK293 cells engineered to express Hpk1 and SLP76. Serial dilutions of test compounds were prepared in cell culture medium and 20 μl was transferred into each well of a 96-well plate containing HEK293 cells in 180 μl of culture medium. After incubation for 4 hours at 37° C./5% CO2, the culture medium was removed, plates were put on ice and cells washed with cold Minimal Essential Medium before lysing in 90 μl of cold Mammalian Protein Extraction Reagent (Thermo Scientific, 78501) for 30 minutes on ice. The cell lysates were transferred to another 96-well plate, centrifuged 10 minutes at 3000 rcf (4° C.) and 30 μl transferred to a 96-well High-bind plate (MSD, L15XB-3). After coating overnight at 4° C., the cell lysate was removed, wells were washed with base buffer (TBS, 0.2% Tween-20), and blocking solution (base buffer containing 3% MSD blocker A) was added to each well for 1 hour at room temperature. The blocking solution was removed, the wells were washed with base buffer, and detection antibody (SLP76 pS376) was added in 25 μl base buffer containing 1% MSD blocker A to each well. After a 2 h incubation at room temperature, the detection antibody was removed, wells were washed four times with base buffer, 25 μl SULFO-TAG labeled goat anti-rabbit secondary antibody (MSD, R32AB-1) in base buffer containing 1% MSD blocker A was added to each well and left for 1 hour at room temperature. Wells were washed 4 times with base buffer, 150 μl Read Buffer T was added to each well, and the plates were read in a Mesoscale plate reader (MSD). IC50 values were determined by curve-fitting the electrochemiluminescent signals obtained from the lysates of HEK293 cells expressing Hpk1 and SLP76 treated with test compounds at various concentrations minus the signal obtained from HEK293 cells expressing SLP76 only.

Where only a bound is given, the exact number is not on record here.

T1 sequence (Q92918 whole entry, the tested form may be a part): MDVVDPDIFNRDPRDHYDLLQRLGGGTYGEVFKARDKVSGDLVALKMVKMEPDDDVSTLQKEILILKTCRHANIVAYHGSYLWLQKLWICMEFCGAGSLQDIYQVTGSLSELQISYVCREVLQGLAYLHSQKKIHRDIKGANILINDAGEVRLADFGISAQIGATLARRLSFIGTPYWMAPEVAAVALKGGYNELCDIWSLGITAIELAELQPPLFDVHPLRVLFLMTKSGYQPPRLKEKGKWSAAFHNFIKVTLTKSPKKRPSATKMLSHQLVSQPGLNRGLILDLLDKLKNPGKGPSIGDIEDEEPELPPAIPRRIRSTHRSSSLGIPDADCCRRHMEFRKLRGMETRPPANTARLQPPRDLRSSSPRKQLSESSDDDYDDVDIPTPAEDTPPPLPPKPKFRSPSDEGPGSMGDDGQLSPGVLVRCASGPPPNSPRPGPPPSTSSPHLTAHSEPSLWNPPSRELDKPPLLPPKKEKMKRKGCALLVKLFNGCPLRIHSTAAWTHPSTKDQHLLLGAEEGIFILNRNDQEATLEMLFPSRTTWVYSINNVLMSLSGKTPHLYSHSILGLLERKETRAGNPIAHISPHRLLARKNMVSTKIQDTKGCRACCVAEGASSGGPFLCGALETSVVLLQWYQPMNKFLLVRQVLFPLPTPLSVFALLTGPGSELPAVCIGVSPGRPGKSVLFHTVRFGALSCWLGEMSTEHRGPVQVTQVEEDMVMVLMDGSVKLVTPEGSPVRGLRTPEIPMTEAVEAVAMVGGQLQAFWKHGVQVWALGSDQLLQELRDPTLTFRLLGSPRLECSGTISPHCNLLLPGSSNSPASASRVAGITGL
Chain of Hpk1 (Q92918 whole entry): as the sequence (Q92918 whole entry, the tested form may be a part) above

As to `Nc1ncc(-c2ccc(C3CCOCC3)c([C@@H]3COCCN3)c2)cc1Br` [Co. 78], the IC50 at full-length human Hpk1 is 8.13 nM; on Hpk1 it was 912 nM.

On to `C[C@H]1CN[C@H](c2cc(-c3cnc(N)c(Br)c3)ccc2C2CCOCC2)CO1` [Co. 79], for which the IC50 was 25.7 nM at full-length human Hpk1 and 794 nM at Hpk1.

As to `Nc1ncc(-c2ccc(C3CCOCC3)c([C@@H]3COCCN3)c2)cc1-c1ccncc1` [Co. 80a], the values for the IC50 on full-length human Hpk1 and on Hpk1 were 14.5 nM and 851 nM, respectively.

For the molecule `Nc1ncc(-c2ccc(C3CCOCC3)c([C@H]3COCCN3)c2)cc1-c1ccncc1` [Co. 80b], the IC50 is 3720 nM at full-length human Hpk1 and more than 10000 nM on Hpk1.

With `Cn1cc(-c2cc(-c3ccc(C4CCOCC4)c([C@@H]4COCCN4)c3)cnc2N)cn1` [Co. 81], the figures for the IC50 at full-length human Hpk1 and at Hpk1 were 15.5 nM and 813 nM, respectively.

For the molecule `Nc1ncc(-c2ccc(C3CCOCC3)c([C@@H]3COCCN3)c2)cc1-c1ccnc(F)c1` [Co. 82], the values for the IC50 on full-length human Hpk1 and at Hpk1 were 8.71 nM and 126 nM, respectively.

`Cn1cc(-c2nc(-c3ccc(C4CCOCC4)c([C@@H]4COCCN4)c3)cnc2N)cn1` [Co. 84]: the IC50 on full-length human Hpk1 is 25.1 nM; on Hpk1 it was 479 nM.

`Nc1ncc(-c2ccc(C3CCOCC3)c([C@@H]3COCCN3)c2)cc1Cl` [Co. 85]: the IC50 is 38 nM at full-length human Hpk1 and 1150 nM on Hpk1.

On to `Cc1cc(-c2ccc(C3CCOCC3)c([C@@H]3COCCN3)c2)cnc1N` [Co. 86], for which the IC50 at full-length human Hpk1 is 120 nM; on Hpk1 it was 3980 nM.

With `COc1cc(-c2ccc(C3CCOCC3)c([C@@H]3COCCN3)c2)cnc1N` [Co. 87], the IC50 on full-length human Hpk1 was 47.9 nM; on Hpk1, 1100 nM.

For the molecule `Nc1ncc(-c2ccc(C3CCOCC3)c([C@@H]3COCCN3)c2)cc1F` [Co. 88], the IC50 on full-length human Hpk1 is 112 nM; at Hpk1, 4170 nM.

For the molecule `N#Cc1cc(-c2ccc(C3CCOCC3)c([C@@H]3COCCN3)c2)cnc1N` [Co. 89], the IC50 is 21.4 nM at full-length human Hpk1 and 851 nM on Hpk1.

As to `C[C@H]1CN[C@H](c2cc(-c3cnc(N)c(-c4cnn(C)c4)n3)ccc2C2CCOCC2)CO1` [Co. 90], the IC50 was 35.5 nM on full-length human Hpk1 and 1230 nM at Hpk1.

For the molecule `C[C@@H]1CN[C@@H](c2cc(-c3cnc(N)c(-c4ccnc(F)c4)c3)ccc2C2CCOCC2)CO1` [Co. 92], the IC50 on full-length human Hpk1 was 1950 nM; on Hpk1, more than 10000 nM.

As for `C[C@H]1CN[C@H](c2cc(-c3cnc(N)c(-c4ccnc(F)c4)c3)ccc2C2CCOCC2)CO1` [Co. 94], the IC50 on full-length human Hpk1 is 12.9 nM; at Hpk1, 575 nM.

As to `Nc1ncc(-c2ccc(C3CCOCC3)c([C@@H]3CCCN3)c2)cc1C1CCOCC1` [Co. 95], the values for the IC50 at full-length human Hpk1 and on Hpk1 were 43.7 nM and 2240 nM, respectively.

Regarding `CC(=O)N1CCC(c2cc(-c3ccc(C4CCOCC4)c([C@@H]4CCCN4)c3)cnc2N)CC1` [Co. 96], on full-length human Hpk1, the “Hpk1 biochemical (pIC50)” value is listed as 6.84. Moreover, at Hpk1, the “pSLP76 (HEK293) (pIC50)” value turned out to be 5.1.

Turning to `CS(=O)(=O)N1CCC(c2ccc(-c3cnc(N)c(-c4ccnc(F)c4)c3)cc2[C@@H]2CCCN2)CC1` [Co. 98], the IC50 is 26.3 nM on full-length human Hpk1 and 724 nM on Hpk1.

On to `Nc1ncc(-c2ccc(C3CCSCC3)c([C@@H]3CCCN3)c2)cc1-c1ccnc(F)c1` [Co. 99], for which the IC50 is 21.4 nM on full-length human Hpk1 and 646 nM at Hpk1.

With `Nc1ncc(-c2ccc(C3CCS(=O)(=O)CC3)c([C@@H]3CCCN3)c2)cc1-c1ccnc(F)c1` [Co. 100], the IC50 at full-length human Hpk1 is 19.5 nM; on Hpk1, 1860 nM.

`Nc1ncc(-c2ccc(C3CCOCC3)c([C@@H]3CCCN3)c2)cc1C1CCS(=O)(=O)CC1` [Co. 102]: the results for the IC50 at full-length human Hpk1 and at Hpk1 were 295 nM and more than 10000 nM, respectively.

Turning to `Nc1ncc(-c2ccc(C3CCOCC3)c([C@@H]3CN4CCCC[C@H]4CN3)c2)cc1Br` [Co. 104], the IC50 is 58.9 nM at full-length human Hpk1 and 7940 nM at Hpk1.

In the case of `Nc1ncc(-c2ccc(C3CCOCC3)c(CNC3COC3)c2)cc1-c1ccnc(F)c1` [Co. 105], the IC50 was 380 nM at full-length human Hpk1 and more than 10000 nM on Hpk1.
